Assay results published in patent publication US6277859A, “Morphinan derivative and its pharmaceutical applications” (priority 1992, dated 2001).
Where a name gives a salt, the structure may show the parent alone.

Tests used:
μ receptor = target: T1, μ receptor (Mus musculus, UniProt P42866); experiment: Ke with naloxone in isolated mouse vas deference preparation; format: cell-based, mouse (male ddy)
T1 construct: The isolated vas deference was filled with Krebes-Henseleit solution; from tissue; host or cells: isolated vas deferens of male ddy mouse
In short: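 Male ddy mouse vas deferens in Krebs-Henseleit at 37 °C, gassed 95% O2/5% CO2, field-stimulated at 0.1 Hz, 5.0 ms; isometric contractions recorded. Naloxone, NTI or norBNI was added, then test compound cumulatively after about 20 min. Ke = [antagonist]/(IC50 ratio−1), with IC50 ratio taken as IC50 with antagonist over IC50 without.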

κ receptor [1] = target: T2, κ receptor (Mus musculus, UniProt P33534); experiment: Ke with norBNI in isolated mouse vas deference preparation; format: cell-based, mouse (male ddy)
T2 construct: The isolated vas deference was filled with Krebes-Henseleit solution; from tissue; host or cells: isolated vas deferens of male ddy mouse

δ receptor = target: T3, δ receptor (Mus musculus, UniProt P32300); experiment: Ke with NTI in isolated mouse vas deference preparation; format: cell-based, mouse (male ddy); details: NTI (δ)
T3 construct: The isolated vas deference was filled with Krebes-Henseleit solution; from tissue; host or cells: isolated vas deferens of male ddy mouse

Wistar rats = experiment: Evaluation of diuretic action; format: in vivo, rat (male Wistar); details: sc; rat, s.c.; urine output for 5 h after 20 ml/kg saline oral; read-out: ED200, diuretic action (dose giving urine output of 200, non-dosed group = 100)
In short: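 Male Wistar rats, 7-8 weeks old, received drug s.c. after water deprivation and bladder voiding, then 20 ml/kg saline orally 30 min later. Urine was collected over 5 h in metabolic cages. ED200 and ED500 are doses giving 200 and 500 urine output with the non-dosed group set at 100.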

κ receptor [2] = target: T4, κ receptor (Cavia porcellus, UniProt P41144); experiment: Ke with norBNI in isolated guinea pig preparation; format: cell-based, guinea pig (male Hartley); details: guinea pig ileum
T4 construct: from tissue; host or cells: longitudinal muscle of the ileum of male Hartley guinea pig
Description: A male Hartley guinea pig was used in this test.
After sacrificing the guinea pig and extracting the ileum, the lumen was washed with nutrient solution and only the longitudinal muscle was isolated. This longitudinal muscle was filled with Krebes-Henseleit solution (NaCl 118 mM; KCl 4.7 mM; CaCl2 2.5 mM; KH2 PO4 1.2 mM; NaHCO3 25 mM; MgSO4 1.2 mM and glucose 10 mM) warmed to 37° C. and suspended in a Magnus tube ventilated with 5% carbon dioxide and 95% oxygen. Electrical stimulus was performed at 0.1 Hz for 5.0 ms by means of ring-shaped platinum electrodes located above and below. Tissue contractions were recorded on a polygraph using an isometric transducer.
Then after adequately washing with nutrient solution and the contraction reaction stabilized, naloxone, a μ antagonist, or norBNI, a κ […], were added and the test compound was again cumulatively added after roughly 20 minutes. The Ke value was calculated using the following calculation formula from the difference in the efficacies of both agonists.
Ke=[Conc. of added antagonist]/(IC50 ratio-1)
IC50 ratio=IC50 in the presence of antagonist/IC50 in the absence of antagonist

T2 sequence (P33534 whole entry): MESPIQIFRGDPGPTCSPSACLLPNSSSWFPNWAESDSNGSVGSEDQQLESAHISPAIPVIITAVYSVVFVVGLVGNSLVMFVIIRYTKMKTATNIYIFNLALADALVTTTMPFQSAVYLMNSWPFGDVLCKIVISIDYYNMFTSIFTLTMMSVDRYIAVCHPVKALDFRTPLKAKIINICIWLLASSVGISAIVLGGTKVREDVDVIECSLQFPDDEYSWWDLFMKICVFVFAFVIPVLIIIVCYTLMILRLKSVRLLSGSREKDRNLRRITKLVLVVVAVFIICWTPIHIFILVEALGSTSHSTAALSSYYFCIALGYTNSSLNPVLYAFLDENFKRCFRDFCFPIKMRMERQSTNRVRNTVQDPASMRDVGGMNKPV
T4 sequence (P41144 whole entry): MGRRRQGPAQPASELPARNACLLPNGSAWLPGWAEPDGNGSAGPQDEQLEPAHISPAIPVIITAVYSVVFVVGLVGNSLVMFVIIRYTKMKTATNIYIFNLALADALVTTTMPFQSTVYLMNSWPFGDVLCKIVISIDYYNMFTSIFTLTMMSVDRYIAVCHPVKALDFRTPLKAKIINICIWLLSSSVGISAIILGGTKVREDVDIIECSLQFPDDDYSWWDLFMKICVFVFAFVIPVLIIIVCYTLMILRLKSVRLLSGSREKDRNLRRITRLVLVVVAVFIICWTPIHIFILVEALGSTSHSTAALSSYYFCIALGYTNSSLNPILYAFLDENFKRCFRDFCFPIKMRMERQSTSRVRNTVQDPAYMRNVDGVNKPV
T1 sequence (P42866 whole entry): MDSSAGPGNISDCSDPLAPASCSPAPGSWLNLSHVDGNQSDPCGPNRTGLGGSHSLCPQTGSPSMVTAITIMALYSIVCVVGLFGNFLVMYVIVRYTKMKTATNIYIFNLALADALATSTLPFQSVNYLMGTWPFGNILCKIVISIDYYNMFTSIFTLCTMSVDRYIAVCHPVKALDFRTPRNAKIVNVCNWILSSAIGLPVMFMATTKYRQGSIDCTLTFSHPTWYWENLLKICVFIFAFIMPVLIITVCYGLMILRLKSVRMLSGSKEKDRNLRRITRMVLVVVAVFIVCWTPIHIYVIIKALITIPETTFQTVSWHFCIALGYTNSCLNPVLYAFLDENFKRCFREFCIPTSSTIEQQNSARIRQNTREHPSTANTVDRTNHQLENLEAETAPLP
T3 sequence (P32300 whole entry): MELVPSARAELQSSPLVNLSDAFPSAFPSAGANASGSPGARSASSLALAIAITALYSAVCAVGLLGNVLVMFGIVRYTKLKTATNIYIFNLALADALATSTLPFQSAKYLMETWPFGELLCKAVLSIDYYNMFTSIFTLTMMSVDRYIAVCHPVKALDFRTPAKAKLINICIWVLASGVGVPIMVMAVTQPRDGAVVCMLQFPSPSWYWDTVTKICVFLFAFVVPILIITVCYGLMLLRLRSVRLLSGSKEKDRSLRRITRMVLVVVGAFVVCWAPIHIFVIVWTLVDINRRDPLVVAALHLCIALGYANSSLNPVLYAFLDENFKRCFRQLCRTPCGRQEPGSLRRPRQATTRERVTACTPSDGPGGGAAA

CN(C(=O)Cc1ccc(Cl)c(Cl)c1)[C@H]1CC[C@@]2(O)[C@H]3Cc4ccc(O)c5c4[C@@]2(CCN3CC2CC2)[C@H]1O5 [Compound 1, 17-cyclopropylmethyl-4,5α-epoxy-3,14β-dihydroxy-6α-(N-methyl-3,4-dichlorophenylacetamido)morphinan.hydrochloride]
Ke Naloxone (μ receptor): 53 nM
selective agonist for κ receptors (in words) (κ receptor [1]): selective agonists for κ receptors
Ke norBNI (κ receptor [1]; norBNI (κ)): 0.548 nM
Ke NTI (δ receptor): 17.3 nM
ED200 (Wistar rats): 2.7 µg/kg
Ke norBNI (κ receptor [2]): 0.16 nM
